Measured values from PubChem BioAssay (NCI).
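The compound was tested at five concentrations on cells cultured in 96-well plates, with a 48-hour exposure period. TGI is the concentration that stops growth completely.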

Legend:
Experiment in all cases: inhibition of tumour cell growth, NCI panel, 48 h
SW-620 colon = system: SW-620 colon
HS 578T breast = system: HS 578T breast
U251 CNS = system: U251 CNS
UACC-62 melanoma = system: UACC-62 melanoma
NCI-H522 lung = system: NCI-H522 lung
NCI/ADR-RES ovarian = system: NCI/ADR-RES ovarian
MDA-N = system: MDA-N
SK-MEL-5 melanoma = system: SK-MEL-5 melanoma
CCRF-CEM leukemia = system: CCRF-CEM leukemia
OVCAR-4 ovarian = system: OVCAR-4 ovarian
OVCAR-5 ovarian = system: OVCAR-5 ovarian
TK-10 renal = system: TK-10 renal
SN12C renal = system: SN12C renal
SK-MEL-28 melanoma = system: SK-MEL-28 melanoma
SF-539 CNS = system: SF-539 CNS
NCI-H226 lung = system: NCI-H226 lung
PC-3 prostate = system: PC-3 prostate
HOP-62 NSCLC = system: HOP-62 NSCLC
K-562 leukemia = system: K-562 leukemia
UO-31 renal = system: UO-31 renal
A549 NSCLC = system: A549 NSCLC
MALME-3M melanoma = system: MALME-3M melanoma
MCF7 breast = system: MCF7 breast
OVCAR-3 ovarian = system: OVCAR-3 ovarian
HOP-92 NSCLC = system: HOP-92 NSCLC
HCC-2998 colon = system: HCC-2998 colon
SF-268 CNS = system: SF-268 CNS
M14 melanoma = system: M14 melanoma
KM12 colon = system: KM12 colon
BT-549 breast = system: BT-549 breast
MOLT-4 leukemia = system: MOLT-4 leukemia
NCI-H23 lung = system: NCI-H23 lung
RXF 393 renal = system: RXF 393 renal
HCT-116 colon = system: HCT-116 colon
HCT-15 colon = system: HCT-15 colon
HL-60(TB) leukemia = system: HL-60(TB) leukemia
MDA-MB-231 breast = system: MDA-MB-231 breast
IGROV1 ovarian = system: IGROV1 ovarian
OVCAR-8 ovarian = system: OVCAR-8 ovarian
786-0 renal = system: 786-0 renal
SNB-75 CNS = system: SNB-75 CNS
SR leukemia = system: SR leukemia
CAKI-1 renal = system: CAKI-1 renal
HT29 colon = system: HT29 colon
SK-MEL-2 melanoma = system: SK-MEL-2 melanoma
T-47D breast = system: T-47D breast
ACHN renal = system: ACHN renal
RPMI-8226 leukemia = system: RPMI-8226 leukemia
SF-295 CNS = system: SF-295 CNS
SNB-19 CNS = system: SNB-19 CNS
NCI-H460 lung = system: NCI-H460 lung
SK-OV-3 ovarian = system: SK-OV-3 ovarian
A498 renal = system: A498 renal
DU-145 prostate = system: DU-145 prostate
LOX IMVI melanoma = system: LOX IMVI melanoma
COLO 205 colon = system: COLO 205 colon
EKVX NSCLC = system: EKVX NSCLC
UACC-257 melanoma = system: UACC-257 melanoma
MDA-MB-435 = system: MDA-MB-435

`O=C(Nc1c[nH]c(=O)[nH]c1=O)Oc1ccccc1` showed a TGI (SW-620 colon) greater than 100 µM, a TGI (HS 578T breast) greater than 100 µM and a TGI (U251 CNS) greater than 100 µM. The TGI (UACC-62 melanoma) was greater than 100 µM, the TGI (NCI-H522 lung) was greater than 100 µM and the TGI (NCI/ADR-RES ovarian) was greater than 100 µM. For the same compound, the TGI (MDA-N) was greater than 100 µM, the TGI (SK-MEL-5 melanoma) was greater than 100 µM and the TGI (CCRF-CEM leukemia) was greater than 100 µM. The TGI (OVCAR-4 ovarian) was greater than 100 µM, the TGI (OVCAR-5 ovarian) was greater than 100 µM and the TGI (TK-10 renal) was greater than 100 µM. The TGI (SN12C renal) was greater than 100 µM, the TGI (SK-MEL-28 melanoma) was greater than 100 µM and the TGI (SF-539 CNS) was greater than 100 µM. The TGI (NCI-H226 lung) was greater than 100 µM, the TGI (PC-3 prostate) was greater than 100 µM and the TGI (HOP-62 NSCLC) was greater than 100 µM. For the same compound, the TGI (K-562 leukemia) was greater than 100 µM, the TGI (UO-31 renal) was greater than 100 µM and the TGI (A549 NSCLC) was greater than 100 µM. It also gave a TGI (MALME-3M melanoma) greater than 100 µM, a TGI (MCF7 breast) greater than 100 µM and a TGI (OVCAR-3 ovarian) greater than 100 µM. It also gave a TGI (HOP-92 NSCLC) greater than 100 µM, a TGI (HCC-2998 colon) greater than 100 µM and a TGI (SF-268 CNS) greater than 100 µM. It also gave a TGI (M14 melanoma) greater than 100 µM, a TGI (KM12 colon) greater than 100 µM and a TGI (BT-549 breast) greater than 100 µM. For the same compound, the TGI (MOLT-4 leukemia) was greater than 100 µM, the TGI (NCI-H23 lung) was greater than 100 µM and the TGI (RXF 393 renal) was greater than 100 µM. It also gave a TGI (HCT-116 colon) greater than 100 µM, a TGI (HCT-15 colon) greater than 100 µM and a TGI (HL-60(TB) leukemia) of 33.5 µM. The TGI (MDA-MB-231 breast) was greater than 100 µM, the TGI (IGROV1 ovarian) was greater than 100 µM and the TGI (OVCAR-8 ovarian) was greater than 100 µM. The TGI (786-0 renal) was greater than 100 µM, the TGI (SNB-75 CNS) was greater than 100 µM and the TGI (SR leukemia) was greater than 100 µM. It also gave a TGI (CAKI-1 renal) greater than 100 µM, a TGI (HT29 colon) greater than 100 µM and a TGI (SK-MEL-2 melanoma) greater than 100 µM. It also gave a TGI (T-47D breast) greater than 100 µM, a TGI (ACHN renal) greater than 100 µM and a TGI (RPMI-8226 leukemia) greater than 100 µM. It also gave a TGI (SF-295 CNS) greater than 100 µM, a TGI (SNB-19 CNS) greater than 100 µM and a TGI (NCI-H460 lung) greater than 100 µM. The TGI (SK-OV-3 ovarian) was greater than 100 µM, the TGI (A498 renal) was greater than 100 µM and the TGI (DU-145 prostate) was greater than 100 µM. It also gave a TGI (LOX IMVI melanoma) greater than 100 µM, a TGI (COLO 205 colon) greater than 100 µM and a TGI (EKVX NSCLC) greater than 100 µM. The TGI (UACC-257 melanoma) was greater than 100 µM and the TGI (MDA-MB-435) was greater than 100 µM.
